Data: ChEMBL document CHEMBL4842376, “Design, synthesis and biological evaluation of novel hybrids targeting mTOR and HDACs for potential treatment of hepatocellular carcinoma” (Eur J Med Chem, 2021)
Active and inactive are the calls of the source. No cut-off for these calls is given here.

Assays:
MDA-MB-231 = test: cells; format: functional, cell-based; conditions: Homo sapiens, MDA-MB-231, 72 h
Description: Antiproliferative activity against human MDA-MB-231 cells assessed as inhibition of cell growth measured after 72 hrs by MTT assay

PLC-PRF-5 = test: Antiproliferative activity against human PLC-PRF-5 cells assessed as inhibition of cell growth measured after 72 hrs by MTT assay; format: functional, cell-based; conditions: PLC-PRF-5, 72 h
SK-HEP1 = test: cells; format: functional, cell-based; conditions: Homo sapiens, SK-HEP1, 72 h
Description: Antiproliferative activity against human SK-HEP1 cells assessed as inhibition of cell growth measured after 72 hrs by MTT assay

[1] = target: T1, Protein deacetylase HDAC6 (Homo sapiens) (UniProt Q9UBN7); test: Inhibition of HDAC6 (unknown origin) at 1 uM using Ac-peptide as a substrate pretreated for 15 mins followed by substrate addition relative to control
T1 sequence (whole entry): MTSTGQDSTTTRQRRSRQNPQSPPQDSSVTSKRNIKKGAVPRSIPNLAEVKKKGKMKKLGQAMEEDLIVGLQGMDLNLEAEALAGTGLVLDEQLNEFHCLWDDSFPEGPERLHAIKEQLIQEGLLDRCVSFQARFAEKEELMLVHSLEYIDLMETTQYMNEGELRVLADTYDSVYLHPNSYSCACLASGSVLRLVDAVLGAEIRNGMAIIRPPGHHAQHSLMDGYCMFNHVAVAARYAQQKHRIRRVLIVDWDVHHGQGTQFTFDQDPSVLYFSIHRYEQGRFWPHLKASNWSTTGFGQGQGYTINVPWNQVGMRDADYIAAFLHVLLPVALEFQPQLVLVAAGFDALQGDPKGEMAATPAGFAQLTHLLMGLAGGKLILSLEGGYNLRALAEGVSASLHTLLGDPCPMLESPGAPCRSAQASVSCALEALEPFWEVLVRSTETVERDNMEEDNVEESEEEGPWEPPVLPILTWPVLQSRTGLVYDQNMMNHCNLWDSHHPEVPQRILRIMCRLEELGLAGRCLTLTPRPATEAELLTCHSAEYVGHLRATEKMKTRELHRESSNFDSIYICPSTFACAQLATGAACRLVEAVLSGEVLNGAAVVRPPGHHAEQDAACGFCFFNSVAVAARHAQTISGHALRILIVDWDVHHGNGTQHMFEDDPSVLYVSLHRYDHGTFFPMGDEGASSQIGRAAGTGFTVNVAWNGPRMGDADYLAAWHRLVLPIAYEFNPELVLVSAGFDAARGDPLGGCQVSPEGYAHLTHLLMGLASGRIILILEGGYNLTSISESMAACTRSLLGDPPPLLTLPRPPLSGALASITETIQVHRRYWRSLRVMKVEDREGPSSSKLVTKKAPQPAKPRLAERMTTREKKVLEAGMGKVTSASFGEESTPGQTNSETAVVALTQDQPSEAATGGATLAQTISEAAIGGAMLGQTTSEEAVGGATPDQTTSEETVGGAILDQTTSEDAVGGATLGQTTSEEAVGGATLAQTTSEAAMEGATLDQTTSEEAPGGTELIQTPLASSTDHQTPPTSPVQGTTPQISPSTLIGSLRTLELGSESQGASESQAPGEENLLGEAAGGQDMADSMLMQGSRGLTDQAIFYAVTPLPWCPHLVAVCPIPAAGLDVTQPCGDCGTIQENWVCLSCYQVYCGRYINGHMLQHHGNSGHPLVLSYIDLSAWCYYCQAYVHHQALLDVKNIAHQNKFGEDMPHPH

MCF7 = test: cells; format: functional, cell-based; conditions: Homo sapiens, MCF7, 72 h
Description: Antiproliferative activity against human MCF7 cells assessed as inhibition of cell growth measured after 72 hrs by MTT assay

[2] = target: Serine/threonine-protein kinase mTOR (Homo sapiens, UniProt P42345); test: Inhibition of mTOR (unknown origin) at 1 uM using U-Light-4E-BP1 peptide as a substrate in the presence of ATP incubated for 30 mins by Lance ultra assay relative to control
A549 = test: cells; format: functional, cell-based; conditions: Homo sapiens, A549, 72 h
Description: Antiproliferative activity against human A549 cells assessed as inhibition of cell growth measured after 72 hrs by MTT assay

Bel-7402 = test: Antiproliferative activity against human Bel-7402 cells assessed as inhibition of cell growth measured after 72 hrs by MTT assay; format: functional, cell-based; conditions: Bel-7402, 72 h
SNU-423 = test: Antiproliferative activity against human SNU-423 cells assessed as inhibition of cell growth measured after 72 hrs by MTT assay; format: functional, cell-based; conditions: SNU-423, 72 h
HepG2 = test: Antiproliferative activity against human HepG2 cells assessed as inhibition of cell growth measured after 72 hrs by MTT assay; format: functional, cell-based; conditions: HepG2, 72 h
HCT-116 = test: cells; format: functional, cell-based; conditions: Homo sapiens, HCT-116, 72 h
Description: Antiproliferative activity against human HCT-116 cells assessed as inhibition of cell growth measured after 72 hrs by MTT assay

Huh-7 = test: cells; format: functional, cell-based; conditions: Homo sapiens, Huh-7, 72 h
Description: Antiproliferative activity against human Huh-7 cells assessed as inhibition of cell growth measured after 72 hrs by MTT assay

Hep 3B2 = test: cells; format: functional, cell-based; conditions: Homo sapiens, Hep3B, 72 h
Description: Antiproliferative activity against human Hep3B cells assessed as inhibition of cell growth measured after 72 hrs by MTT assay

HeLa = test: cells; format: functional, cell-based; conditions: Homo sapiens, 72 h
Description: Antiproliferative activity against human HeLa cells assessed as inhibition of cell growth measured after 72 hrs by MTT assay

CNE-2 = test: cells; format: functional, cell-based; conditions: Homo sapiens, CNE-2, 72 h
Description: Antiproliferative activity against human CNE-2 cells assessed as inhibition of cell growth measured after 72 hrs by MTT assay

[3] = Metabolic stability in rat liver microsomes assessed as parent compound remaining at 10 ug/ml measured after 1 hr in the presence of NADPH by HPLC analysis; format: ADME, Microsome; conditions: at 10 µg/mL; for Stabilty: microsomes, 1 h
L02 = test: cells; format: ADME, cell-based; conditions: Homo sapiens, L02, 72 h
Description: Cytotoxicity against human L02 cells assessed as reduction in cell viability measured after 72 hrs by MTT assay

in vitro = conditions: human, L02 cells versus HepG2 cells
Description: Selectivity index, ratio of IC50 for cytotoxicity against human L02 cells to IC50 for antiproliferative activity against human HepG2 cells

[4] = target: T2, Protein deacetylase HDAC6 (Homo sapiens, UniProt Q9UBN7); test: Inhibition of HDAC6 (unknown origin) using Ac-peptide as a substrate pretreated for 15 mins followed by substrate addition
T2 sequence (Q9UBN7 whole entry): T1 sequence (whole entry)

[5] = target: T3, Histone deacetylase (Homo sapiens) (UniProt Q13547+O15379+Q9UBN7+Q92769+Q9UQL6+Q8WUI4+Q9BY41+Q96DB2+P56524+Q9UKV0+Q969S8); test: Inhibition of HDAC in human HepG2 cells assessed as upregulation of alpha-tubulin acetylation at 6 uM measured after 24 hrs by western blot analysis; format: cell-based
Histone deacetylase 2 = Histone deacetylase 2 (Homo sapiens, UniProt Q92769)
Histone deacetylase 1 = Histone deacetylase 1 (Homo sapiens, UniProt Q13547); test: Inhibition of HDAC1 (unknown origin) using Ac-peptide as a substrate pretreated for 15 mins followed by substrate addition
Histone deacetylase 8 = target: T4, Histone deacetylase 8 (Homo sapiens, UniProt Q9BY41); test: Inhibition of HDAC8 (unknown origin) using Ac-peptide as a substrate pretreated for 15 mins followed by substrate addition
T4 sequence (Q9BY41 whole entry): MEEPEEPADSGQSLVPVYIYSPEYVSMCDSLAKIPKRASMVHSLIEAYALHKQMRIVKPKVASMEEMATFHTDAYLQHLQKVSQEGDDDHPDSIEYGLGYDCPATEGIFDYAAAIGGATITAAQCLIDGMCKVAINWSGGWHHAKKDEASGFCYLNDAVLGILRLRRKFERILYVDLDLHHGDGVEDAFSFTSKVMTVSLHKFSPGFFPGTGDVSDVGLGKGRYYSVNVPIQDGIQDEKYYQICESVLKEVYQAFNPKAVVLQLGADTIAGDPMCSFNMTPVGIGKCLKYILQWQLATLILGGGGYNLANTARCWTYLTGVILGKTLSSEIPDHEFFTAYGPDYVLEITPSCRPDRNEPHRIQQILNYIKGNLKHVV

[6] = target: T3, Histone deacetylase (Homo sapiens); test: Inhibition of HDAC in human HepG2 cells assessed as upregulation of histone H3 acetylation at 6 uM measured after 24 hrs by western blot analysis; format: cell-based
Histone deacetylase 3 = Histone deacetylase 3 (Homo sapiens, UniProt O15379); test: Inhibition of HDAC3 (unknown origin) using Ac-peptide as a substrate pretreated for 15 mins followed by substrate addition
Sequence of Histone deacetylase 3 (O15379 whole entry): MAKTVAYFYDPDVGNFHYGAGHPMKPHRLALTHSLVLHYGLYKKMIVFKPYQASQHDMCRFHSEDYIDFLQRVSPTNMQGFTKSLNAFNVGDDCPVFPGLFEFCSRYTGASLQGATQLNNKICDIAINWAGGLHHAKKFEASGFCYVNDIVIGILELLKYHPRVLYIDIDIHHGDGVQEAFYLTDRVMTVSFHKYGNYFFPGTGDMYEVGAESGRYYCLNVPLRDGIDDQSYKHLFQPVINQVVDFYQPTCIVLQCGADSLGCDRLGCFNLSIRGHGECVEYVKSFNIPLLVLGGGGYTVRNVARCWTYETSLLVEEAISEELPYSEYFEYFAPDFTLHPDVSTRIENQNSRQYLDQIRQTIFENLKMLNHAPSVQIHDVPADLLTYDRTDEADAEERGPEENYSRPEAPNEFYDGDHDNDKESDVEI

Sequence of Histone deacetylase 2 (Q92769 whole entry): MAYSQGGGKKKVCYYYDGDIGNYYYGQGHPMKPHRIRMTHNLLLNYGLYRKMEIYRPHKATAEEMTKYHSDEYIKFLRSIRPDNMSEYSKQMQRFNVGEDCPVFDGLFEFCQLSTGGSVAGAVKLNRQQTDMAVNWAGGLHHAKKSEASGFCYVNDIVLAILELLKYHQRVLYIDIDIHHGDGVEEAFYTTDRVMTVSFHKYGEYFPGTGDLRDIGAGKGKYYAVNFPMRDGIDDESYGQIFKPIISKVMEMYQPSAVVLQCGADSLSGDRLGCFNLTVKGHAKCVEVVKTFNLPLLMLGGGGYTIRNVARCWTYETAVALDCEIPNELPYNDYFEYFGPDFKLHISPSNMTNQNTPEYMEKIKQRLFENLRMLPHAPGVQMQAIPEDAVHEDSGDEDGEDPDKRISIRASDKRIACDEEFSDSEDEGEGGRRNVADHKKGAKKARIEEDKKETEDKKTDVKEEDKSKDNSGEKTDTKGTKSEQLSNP
Sequence of Histone deacetylase 1 (Q13547 whole entry): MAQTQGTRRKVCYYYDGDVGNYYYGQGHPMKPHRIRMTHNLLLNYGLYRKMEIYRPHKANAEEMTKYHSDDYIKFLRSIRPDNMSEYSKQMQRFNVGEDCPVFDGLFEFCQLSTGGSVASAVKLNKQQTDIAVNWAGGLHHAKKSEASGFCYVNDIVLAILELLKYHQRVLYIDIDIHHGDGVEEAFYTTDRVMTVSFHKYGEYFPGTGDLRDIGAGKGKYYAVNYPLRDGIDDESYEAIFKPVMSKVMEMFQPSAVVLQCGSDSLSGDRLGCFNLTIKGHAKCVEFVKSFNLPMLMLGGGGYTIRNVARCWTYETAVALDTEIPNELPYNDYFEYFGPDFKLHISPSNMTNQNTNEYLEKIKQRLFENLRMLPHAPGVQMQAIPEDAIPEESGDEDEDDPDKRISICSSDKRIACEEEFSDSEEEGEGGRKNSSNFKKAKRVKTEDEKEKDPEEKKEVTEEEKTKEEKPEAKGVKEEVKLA

Compound | IC50 (MDA-MB-231) [µM] | IC50 (PLC-PRF-5) [µM] | IC50 (SK-HEP1) [µM] | inhibition [1] [%] | IC50 (MCF7) [µM] | inhibition [2] [%] | IC50 (A549) [µM] | IC50 (Bel-7402) [µM] | IC50 (SNU-423) [µM] | IC50 (HepG2) [µM] | IC50 (HCT-116) [µM] | IC50 (Huh-7) [µM] | IC50 (Hep 3B2) [µM] | IC50 (HeLa) [µM] | IC50 (CNE-2) [µM] | also measured
Nc1nc2cc(-c3nn(CCCCCC(=O)NO)c4ncnc(N)c34)ccc2o1 | 19 | > 50 | 3.08 | 97.8 | 12.4 | 100 | > 100 | 2.03 | 12.6 | 1.99 | 21.5 | 9.91 | 34.2 | 15.4 | 37.6 | 
CC(C)n1nc(-c2ccc3oc(N)nc3c2)c2c(N)ncnc21 [SAPANISERTIB] | 0.031 | 6.63 | 0.008 |  | 0.053 |  | 0.174 | > 100 | 0.015 | 2.13 | 0.048 | 0.007 | 4.43 | 0.036 | 0.101 | Stabilty [3]: Stable; IC50 (L02): 0.28 µM
Nc1nc2cc(-c3nn(CCCCCCCC(=O)NO)c4ncnc(N)c34)ccc2o1 | 2.9 | 30.5 | 10.7 | 99.1 | 7.22 | 99.6 | 8.36 | 13.2 | 0.28 | 3.64 | 3.15 | 2.77 | 10.3 | 12.9 | 2.25 | selectivity ratio (in vitro): 2.21; IC50 [4]: 0.00673 µM; inhibition [5]: Active; IC50 (Histone deacetylase 2): 0.0034 µM; IC50 (Histone deacetylase 1): 0.0025 µM; IC50 (Histone deacetylase 8): 0.334 µM; remaining at 1 h, 10 ug/ml ([3]; liver microsomes, read-out: Stabilty): 63.9%; IC50 (L02): 8.04 µM; inhibition [6]: Active; IC50 (Histone deacetylase 3): 0.0071 µM
Nc1ncnc2c1c(-c1cnc3[nH]ccc3c1)nn2CCCCCCC(=O)NO | 37.7 | > 50 | 14.7 | 99.1 | 19.8 | 98.7 | 50 | 30.8 | 7.5 | 10.3 | 9.86 | 50.9 | 26.2 | 22 | 19.5 | 
O=C(CCCCCCC(=O)Nc1ccccc1)NO [VORINOSTAT] |  | 2.22 |  |  |  |  |  | 27.4 | 0.079 |  |  |  |  |  |  | Stabilty [3]: Stable
Nc1nc2cc(-c3nn(CCCCC(=O)NO)c4ncnc(N)c34)ccc2o1 | 21.2 | 29.6 | 6.4 | 95.1 | 14 | 99.4 | > 100 | 2.4 | 3.03 | 2.1 | 34 | 9.22 | 33.7 | 32.2 | > 50 | 
Nc1nc2cc(-c3nn(CCCCCCCCCC(=O)NO)c4ncnc(N)c34)ccc2o1 | > 50 | > 100 | 14.1 | 98.2 | > 50 | 92.4 | > 50 | > 50 | > 50 | 28.6 | 23.1 | 41.2 | 28.8 | > 50 | 36.8 | 
Nc1nc2cc(-c3nn(CCCCCCCCC(=O)NO)c4ncnc(N)c34)ccc2o1 | 30.3 | 24 | > 100 | 99 | 42.1 | 99.3 | 13.2 | > 100 | 4.94 | 2.61 | 2.98 | 1.47 | 8.89 | 10.2 | 3.24 | 
Nc1ncnc2c1c(-c1cnc3[nH]ccc3c1)nn2CCCCCCCC(=O)NO | 15.8 | 35.9 | 3.95 | 100 | 7.57 | 98.7 | 51 | 17.4 | 5.4 | 5.63 | 6.76 | 23.5 | 16.3 | 29.1 | 8.99 | 
Nc1ncnc2c1c(-c1cnc3[nH]ccc3c1)nn2CCCCCCCCCC(=O)NO | 10.1 | 34.2 | 23.5 | 98.3 | 23.2 | 97.6 | 6.55 | 42.1 | 8.16 | 11.7 | 18.7 | 10.1 | 17.2 | 7.56 | 2.2 | 
